Active and inactive are the calls of the source.
Experiments:
Type in all cases: protein-complex assay
[1] = target: T1, Protein farnesyltransferase (Homo sapiens, UniProt P49354+P49356); assay: In vitro inhibition of human recombinant Protein farnesyltransferase
[2] = target: T1, Protein farnesyltransferase; assay: In vitro inhibition of human recombinant Protein farnesyltransferase at 20 uM (Inactive)
[3] = target: T1, Protein farnesyltransferase; assay: In vitro inhibition of human recombinant Protein farnesyltransferase with respect to FPP

Row | IC50 [1] | Activity [2] | Ki [3] | Structure (SMILES)
1 | 3.3 nM |  |  | O=C(O)C/C(C(=O)O)=C(/CCCCCCCCCCCCCCCCO)C(=O)O
2 |  | inactive |  | COC(=O)C/C(C(=O)OC)=C(/CCCCCCCCCCCCCCCCO)C(=O)OC
3 | 10.6 nM |  |  | COC(=O)C/C(C(=O)OC)=C(/CCCCCCCCCCCCCCCCOS(=O)(=O)O)C(=O)OC
4 | 14 nM |  | 4.5 nM | O=C(O)C/C(C(=O)O)=C(/CCCCCCCCCCCCCCCCOS(=O)(=O)O)C(=O)O

— ChEMBL document CHEMBL1129156, “Oreganic acid: a potent novel inhibitor of ras farnesyl-protein transferase from an endophytic fungus” (Bioorg Med Chem Lett, 1996)
